Publication PMC7982320 (Pharmacology Research & Perspectives, 2021)

Experiments:
CYP2B6 = CYP2B6 (Homo sapiens, UniProt P20813); type: in vitro ADME; details: read-out: IC50, No preincubation; CYP2B6, pooled HLMs, n = 3
CYP2C8 = CYP2C8 (Homo sapiens, UniProt P10632); test: CYP inhibition in pooled human liver microsomes, paclitaxel probe; type: in vitro ADME; details: read-out: IC50, No preincubation; CYP2C8, pooled HLMs, n = 3
CYP1A2 = test: in vitro; type: in vitro ADME, human; details: 48 h
human BSEP = human BSEP (Homo sapiens, UniProt O95342); test: Transporter inhibition, vesicular transport assay; type: in vitro ADME
human OATP1B1 = target: T1, human OATP1B1 (Homo sapiens, UniProt Q9Y6L6); test: Transporter inhibition, uptake assay; type: in vitro ADME
T1 sequence (Q9Y6L6 1-691): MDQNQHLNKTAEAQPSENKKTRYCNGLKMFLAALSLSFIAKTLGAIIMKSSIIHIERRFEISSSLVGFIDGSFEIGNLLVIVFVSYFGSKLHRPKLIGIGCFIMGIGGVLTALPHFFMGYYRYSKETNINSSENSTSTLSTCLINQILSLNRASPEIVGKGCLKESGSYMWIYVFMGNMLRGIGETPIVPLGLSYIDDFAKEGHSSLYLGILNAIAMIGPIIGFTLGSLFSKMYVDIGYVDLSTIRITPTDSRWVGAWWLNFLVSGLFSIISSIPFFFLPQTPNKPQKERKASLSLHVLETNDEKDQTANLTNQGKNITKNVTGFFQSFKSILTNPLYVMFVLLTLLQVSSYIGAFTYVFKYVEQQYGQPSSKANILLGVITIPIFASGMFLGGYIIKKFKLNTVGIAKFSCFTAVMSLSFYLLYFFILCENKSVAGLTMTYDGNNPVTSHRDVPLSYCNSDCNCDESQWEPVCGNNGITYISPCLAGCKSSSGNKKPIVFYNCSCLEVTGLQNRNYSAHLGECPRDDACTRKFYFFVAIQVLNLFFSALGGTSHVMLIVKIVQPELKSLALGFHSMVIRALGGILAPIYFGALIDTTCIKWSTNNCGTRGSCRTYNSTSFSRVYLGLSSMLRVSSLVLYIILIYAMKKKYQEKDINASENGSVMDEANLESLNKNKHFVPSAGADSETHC

human BSEP, sequence (O95342 whole entry): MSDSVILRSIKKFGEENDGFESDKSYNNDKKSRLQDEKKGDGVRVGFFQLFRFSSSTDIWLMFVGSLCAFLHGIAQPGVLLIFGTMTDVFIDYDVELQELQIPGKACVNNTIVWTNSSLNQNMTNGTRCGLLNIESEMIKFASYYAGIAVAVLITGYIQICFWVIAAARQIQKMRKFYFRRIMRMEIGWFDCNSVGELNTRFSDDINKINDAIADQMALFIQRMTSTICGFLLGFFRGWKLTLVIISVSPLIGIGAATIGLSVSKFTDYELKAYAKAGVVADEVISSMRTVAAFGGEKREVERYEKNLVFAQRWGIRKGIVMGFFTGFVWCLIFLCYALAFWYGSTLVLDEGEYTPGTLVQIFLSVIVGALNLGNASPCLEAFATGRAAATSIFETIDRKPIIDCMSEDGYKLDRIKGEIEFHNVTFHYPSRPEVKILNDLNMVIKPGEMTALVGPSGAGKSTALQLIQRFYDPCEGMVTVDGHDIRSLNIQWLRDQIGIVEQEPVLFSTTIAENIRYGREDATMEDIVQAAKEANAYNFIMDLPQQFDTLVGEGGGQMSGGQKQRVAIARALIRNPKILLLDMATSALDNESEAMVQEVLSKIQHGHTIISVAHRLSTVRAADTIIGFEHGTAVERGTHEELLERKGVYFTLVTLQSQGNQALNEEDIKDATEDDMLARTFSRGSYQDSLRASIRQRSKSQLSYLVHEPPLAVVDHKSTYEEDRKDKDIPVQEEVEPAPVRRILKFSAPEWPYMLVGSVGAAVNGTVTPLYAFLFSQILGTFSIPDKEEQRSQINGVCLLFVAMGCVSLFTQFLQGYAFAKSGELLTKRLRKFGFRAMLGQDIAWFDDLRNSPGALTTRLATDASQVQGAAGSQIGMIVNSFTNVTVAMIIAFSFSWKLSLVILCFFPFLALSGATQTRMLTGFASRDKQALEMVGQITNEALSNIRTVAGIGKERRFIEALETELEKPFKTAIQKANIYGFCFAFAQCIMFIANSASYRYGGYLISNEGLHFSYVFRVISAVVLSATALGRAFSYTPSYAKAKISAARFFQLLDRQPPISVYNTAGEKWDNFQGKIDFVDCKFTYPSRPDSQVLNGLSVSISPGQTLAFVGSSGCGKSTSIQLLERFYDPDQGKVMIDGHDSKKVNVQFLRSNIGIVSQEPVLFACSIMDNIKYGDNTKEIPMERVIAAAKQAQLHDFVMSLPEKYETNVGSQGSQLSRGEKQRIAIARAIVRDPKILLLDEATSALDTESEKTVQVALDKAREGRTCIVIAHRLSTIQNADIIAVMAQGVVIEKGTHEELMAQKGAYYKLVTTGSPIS
CYP2C8, sequence (P10632 whole entry): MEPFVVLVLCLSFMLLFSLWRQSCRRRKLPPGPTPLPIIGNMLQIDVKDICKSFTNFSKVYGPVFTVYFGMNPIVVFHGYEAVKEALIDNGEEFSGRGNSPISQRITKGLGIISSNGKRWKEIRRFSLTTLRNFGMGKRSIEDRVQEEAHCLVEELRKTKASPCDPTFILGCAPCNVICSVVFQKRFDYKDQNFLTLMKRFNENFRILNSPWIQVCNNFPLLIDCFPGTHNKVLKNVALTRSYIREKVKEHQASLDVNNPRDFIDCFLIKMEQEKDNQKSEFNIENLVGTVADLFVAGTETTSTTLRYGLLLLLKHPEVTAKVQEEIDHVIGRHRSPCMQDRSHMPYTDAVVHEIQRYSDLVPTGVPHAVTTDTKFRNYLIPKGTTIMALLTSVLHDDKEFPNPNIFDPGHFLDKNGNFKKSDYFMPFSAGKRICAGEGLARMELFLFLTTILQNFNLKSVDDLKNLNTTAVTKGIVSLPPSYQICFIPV
CYP2B6, sequence (P20813 whole entry): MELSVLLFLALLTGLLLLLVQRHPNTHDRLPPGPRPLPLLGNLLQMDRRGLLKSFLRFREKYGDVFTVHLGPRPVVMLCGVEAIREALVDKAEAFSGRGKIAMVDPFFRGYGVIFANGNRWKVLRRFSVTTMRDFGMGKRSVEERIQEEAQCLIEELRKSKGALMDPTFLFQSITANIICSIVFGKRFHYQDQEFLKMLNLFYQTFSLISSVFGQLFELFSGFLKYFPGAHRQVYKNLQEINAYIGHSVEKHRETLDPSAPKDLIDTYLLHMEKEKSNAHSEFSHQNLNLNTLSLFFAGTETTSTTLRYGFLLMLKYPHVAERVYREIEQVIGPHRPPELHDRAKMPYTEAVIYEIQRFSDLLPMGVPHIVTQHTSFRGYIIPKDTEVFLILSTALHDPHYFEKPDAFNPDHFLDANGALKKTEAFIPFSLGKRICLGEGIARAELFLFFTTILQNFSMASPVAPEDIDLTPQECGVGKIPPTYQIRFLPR

SMILES: CC1=N[C@]2(C(=O)CO)[C@@H](C[C@H]3[C@@H]4C[C@@H](O)C5=CC(=O)C=C[C@]5(C)[C@H]4[C@@H](O)C[C@@]32C)O1 [6β‐OH‐21‐desDFZ, 6β‐Hydroxy‐21‐desacetyl deflazacort]
- IC50 (CYP2B6): > 50 µM
- IC50 (CYP2C8): > 50 µM
- CYP1A2 enzyme activity fold induction (CYP1A2; donor one, 0.002 µM): 0.783 fold
- CYP1A2 mRNA fold induction (CYP1A2; donor one, 0.002 µM): 0.657 fold
- CYP1A2 enzyme activity fold induction (CYP1A2; donor one, 0.01 µM): 0.671 fold
- CYP1A2 mRNA fold induction (CYP1A2; donor one, 0.01 µM): 0.735 fold
- CYP1A2 enzyme activity fold induction (CYP1A2; donor one, 0.05 µM): 0.649 fold
- CYP1A2 mRNA fold induction (CYP1A2; donor one, 0.05 µM): 0.735 fold
- CYP1A2 enzyme activity fold induction (CYP1A2; donor one, 0.25 µM): 0.753 fold
- CYP1A2 mRNA fold induction (CYP1A2; donor one, 0.25 µM): 0.667 fold
- CYP1A2 enzyme activity fold induction (CYP1A2; donor one, 5 µM): 0.770 fold
- CYP1A2 mRNA fold induction (CYP1A2; donor one, 5 µM): 0.628 fold
- CYP1A2 enzyme activity fold induction (CYP1A2; donor one, 10 µM): 0.772 fold
- CYP1A2 mRNA fold induction (CYP1A2; donor one, 10 µM): 0.619 fold
- CYP1A2 enzyme activity fold induction (CYP1A2; donor one, 20 µM): 0.699 fold
- CYP1A2 mRNA fold induction (CYP1A2; donor one, 20 µM): 0.741 fold
- CYP1A2 enzyme activity fold induction (CYP1A2; donor three, 0.002 µM): 1.01 fold
- CYP1A2 mRNA fold induction (CYP1A2; donor three, 0.002 µM): 0.665 fold
- CYP1A2 enzyme activity fold induction (CYP1A2; donor three, 0.01 µM): 0.892 fold
- CYP1A2 mRNA fold induction (CYP1A2; donor three, 0.01 µM): 0.744 fold
- CYP1A2 enzyme activity fold induction (CYP1A2; donor three, 0.05 µM): 0.812 fold
- CYP1A2 mRNA fold induction (CYP1A2; donor three, 0.05 µM): 0.701 fold
- CYP1A2 enzyme activity fold induction (CYP1A2; donor three, 0.25 µM): 0.747 fold
- CYP1A2 mRNA fold induction (CYP1A2; donor three, 0.25 µM): 0.610 fold
- CYP1A2 enzyme activity fold induction (CYP1A2; donor three, 5 µM): 0.870 fold
- CYP1A2 mRNA fold induction (CYP1A2; donor three, 5 µM): 0.635 fold
- CYP1A2 enzyme activity fold induction (CYP1A2; donor three, 10 µM): 0.954 fold
- CYP1A2 mRNA fold induction (CYP1A2; donor three, 10 µM): 0.647 fold
- CYP1A2 enzyme activity fold induction (CYP1A2; donor three, 20 µM): 0.955 fold
- CYP1A2 mRNA fold induction (CYP1A2; donor three, 20 µM): 0.723 fold
- CYP1A2 enzyme activity fold induction (CYP1A2; donor two, 0.002 µM): 0.913 fold
- CYP1A2 mRNA fold induction (CYP1A2; donor two, 0.002 µM): 0.978 fold
- CYP1A2 enzyme activity fold induction (CYP1A2; donor two, 0.01 µM): 0.880 fold
- CYP1A2 mRNA fold induction (CYP1A2; donor two, 0.01 µM): 0.871 fold
- CYP1A2 enzyme activity fold induction (CYP1A2; donor two, 0.05 µM): 0.838 fold
- CYP1A2 mRNA fold induction (CYP1A2; donor two, 0.05 µM): 0.928 fold
- CYP1A2 enzyme activity fold induction (CYP1A2; donor two, 0.25 µM): 0.832 fold
- CYP1A2 mRNA fold induction (CYP1A2; donor two, 0.25 µM): 0.979 fold
- CYP1A2 enzyme activity fold induction (CYP1A2; donor two, 5 µM): 1.18 fold
- CYP1A2 mRNA fold induction (CYP1A2; donor two, 5 µM): 0.786 fold
- CYP1A2 enzyme activity fold induction (CYP1A2; donor two, 10 µM): 1.07 fold
- CYP1A2 mRNA fold induction (CYP1A2; donor two, 10 µM): 0.840 fold
- CYP1A2 enzyme activity fold induction (CYP1A2; donor two, 20 µM): 1.18 fold
- CYP1A2 mRNA fold induction (CYP1A2; donor two, 20 µM): 0.886 fold
- Maximum inhibition at 50 µM (human BSEP; BSEP VT, n = 3): 27 % of control
- inhibitory interaction with transporter (human BSEP; BSEP, up to 50 µM): no inhibitory interaction
- estimated plasma Cmax/IC50 ratio (human OATP1B1; OATP1B1, Cmax 0.34 µM, assumed 100% free): 0.009
- Maximum inhibition at 50 µM (human OATP1B1; OATP1B1 UPT, n = 3): 67 % of control
- IC50 (human OATP1B1; OATP1B1 UPT, brackets: 95% confidence interval): 36.7 µM
